One data set relates to B16F10 melanoma. Briefly: Tumor growth and survival of B16F10 melanoma bearing mice. In kind it is in vivo, C57Bl/6J mice. How it is done: In vivo experiments were conducted in male C57BL/6J mice (18-25 g), housed at 22 ± 2°C under a 12/12 h light/dark cycle with free access to food and water until use. The animals were acclimatized to the laboratory for at least 24 h before testing and were used only once. All animal handling and experimental procedures were conducted with prior approval of the ethics committee on animal use of the University of São Paulo Medical School Hospital Ethics Committee.
To mice experimentations, the simvastatin compressed powders were macerated and watery solutions were made.
All animal's procedures were made in Butantan Institute with supervision of Dr. Durvanei Augusto Maria, in accordance with University of Sao Paulo Medical School Hospital Ethics Committee. Briefly, 5 × 10^4 B16F10 melanoma cells were injected subcutaneously into C57Bl/6J mice. […] Tumors were measured using a caliper and volume was estimated using the formula V = (small diameter)^2 × (large diameter)/¾ πR [13].
Tumor growth data were analyzed by Student's t test, survival rate data were analyzed by Kaplan-Meyer curves and hematological data were analyzed by one-way ANOVA with Tukey posttest using Graph Pad Prism Stat version 4.0 for Windows.

A short description of data set [1]: Bone marrow and spleen cellularity. The format is in vivo, C57BL/6J mice. How it is done: (§1) C57BL/6J mice, weighing about 20 g and 60 days older were used. After the experiments, blood was collected from the axillary plexus. The bone marrow was collected from the femur of the same animals. The spleen cellularities were also analyzed.
The animals were first anesthetized, exsanguinated and sacrificed by cervical dislocation. The bone marrow was obtained by washing the cavity with the culture femoral McCoy's 5A modified (Sigma, Chemical Company, USA) ice cream.
Sleen cells were collected by the same sacrificed animals of hematological procedures. The spleen was transferred to plastic Petri dish with iced culture McCoy's 5A modified (Sigma, Chemical Company, USA) containing 10% EDTA, used to collect the cells. In the Petri dish, the spleen capsule was broken in one of its ends, with the aid of two needles bent into "L", and fixed in syringes. The cells were gently removed from the dish by the dissociation method. The suspension was homogenized in the Petri dish with standard Pasteur pipette to complete cell separation and transferred to conical plastic tube and kept in an ice bath. The cells obtained from the spleen were quantified in a Neubauer chamber hemocytometer after dilution of 1:500 liquid Turk, diluent composed of 1% solution of glacial acetic acid. For morphological evaluation, the slides were performed in cell suspension cellspin cytocentrifuge (Incibras) and subsequently submitted to the staining of May-Grunwald GIENS, modified by Rosenfeld, and peroxidase method modified by Graham Knoll, for identification and quantification of different types cell.

A short description of another data set: Blood cells evaluation. In kind it is in vivo, C57BL/6J mice. The note with it: mean ± S.E.M., seven animals. As to the method:
as §1
Blood samples were collected twenty days after tumor implant from the axillary plexus of the animals in all experimental groups, which were used to perform blood and reticulocyte count, according to the techniques used in the Laboratory of Experimental Hematology of FCF/USP [14].

A further data set deals with B16F10 melanoma cells. In words: Cell cycle analysis by flow cytometry (propidium iodide). In kind it is cell-based, mice. Particulars: 0.8 μM. How it is done:
Cell cycle analysis was determined by flow cytometry at the Federal State University of Paraná. Briefly, after the different treatments, 2 × 10^6 cells were trypsinized, washed three times with PBS, fixed in 70% ethanol, and stained with Propidium Iodide (PI) solution. All analyses were done using a FACScalibur flow cytometer (Becton Dickinson, San Jose, CA). The red fluorescence of PI was collected through a 585/42-nm band -pass filter, and the fluorescence signals were measured in a linear scale of 1024 channels. For each sample, at least 10000 events were acquired and the data were analyzed using an appropriate software (CELLQuest, Becton Dickinson, San Jose, CA).
In general terms: A flow cytometer gives signals particle by particle.

Data set [2] has as its system B16F10 mice melanoma cell line. Briefly: B16F10 melanoma cell viability (MTT, Trypan Blue exclusion). The format is cell-based. As to the method: B16F10 mice melanoma cell line was generously provided by Dr. Roger Chammas (USP, São Paulo, Brazil). Cells were routinely cultured in RPMI 1640 medium supplemented with 10% fetal bovine serum (FBS) at 37°C in a humidified atmosphere containing 5% CO2.
To dissolve the crystals of Formazan was used dimethylsulfoxide (DMSO). Quantification was obtained by the absorbance reading at a wavelength of 450 nm to 690 nm. Cell viability was also evaluated by the method of Trypan Blue exclusion (Invitrogen, Carlsbad, CA), by direct counting in a hemocytometer.

Setting [3] is: mice bearing melanoma treated with same doses.
[4] abbreviates: mice without tumor (Control-Simvastatin), vs control.
Where [5] appears, read: melanoma bearing mice (Tumor-Simvastatin), twenty days after implant.
The mark [6] stands for this setting: mice without tumor (Control-Simvastatin).

`CCC(C)(C)C(=O)O[C@H]1C[C@@H](C)C=C2C=C[C@H](C)[C@H](CC[C@@H]3C[C@@H](O)CC(=O)O3)[C@H]21` [simvastatin, Simvastatin]: the “final tumor sizing compared to the controls” value in the data set on B16F10 melanoma (5 mg/Kg/day orally for 10 days, started 10 days after inoculation) is recorded as 25%. Further, the “treated mice with a survival of 28 days (Kaplan-Meyer)” value in the data set on B16F10 melanoma (5 mg/Kg/day orally, no survival mice of control group on day 24) is given as “Twenty-five percent”. In the data set with B16F10 melanoma (melanoma bearing mice, tumor re-started to grow when treatment aborted), the total tumoral regression result is “not developed”. The “tumor inhibition (B16F10 tumor growth)” value in the data set on B16F10 melanoma (over 10 days period) is “approximately 75%”. In data set [1] (setting [3]), the “Femoral Bone Marrow cellularity” value is recorded as “equal” and the Spleen cellularity result is “equal”. In data set [1] (setting [4]), the “Femoral Bone Marrow cellularity” value was “decreased” and the Spleen cellularity result was “decreased”. For the same molecule, in the data set “Blood cells evaluation” (setting [5]), the Eosinophils is 8.5 ± 3.0 %, the Hemoglobin worked out at 12.4 ± 1.2 g/dL and the “Total Leukocytes” value was 3.9 ± 0.8 * 103/mm3. In the data set “Blood cells evaluation” (setting [6]), the Eosinophils is recorded as 4.7 ± 1.4%, the Hemoglobin is listed as 12.8 ± 1.9 g/dL and the “Total Leukocytes” value is 3.3 ± 0.1 * 103/mm3. Also, the cell cycle effect entry in the data set on B16F10 melanoma cells (24 hours) is recorded as “early cell cycle arrest in G0/G1”. The hypodiploid cells result in the data set with B16F10 melanoma cells (after G0/G1 arrest) was “increase of hypodiploid cells”. Also, the “toxic effect on B16F10 cells” value in data set [2] (0.8 μM) is reported as “toxic effect”. The “toxic effect on B16F10 cells” value in data set [2] (1.6 μM) is listed as “toxic effect”. The “toxicity (cell death) in the first 24 h of incubation” value in data set [2] (1.6 μM, first 24 h) is “massive death”. In addition, in data set [2] (cultured melanoma, after 48 hours, vs vehicle-treated), the “number of viable cells, trypan blue assay” value is given as “reduces the number of viable cells”.

Source of the values: paper PMC3012033 (Lipids in Health and Disease, 2010).
